Results: patent publication US11992530B2 (priority 2018, dated 2024)
“And” between values parts separate entries of the source, which are not always exact repeats. Equal values may be shown once. Read-outs that look alike come from different tables or passages of the source.

Columns and labels:
[1] = Clinical pharmacokinetics (plasma levels, distribution, excretion)
Text: The compound is available as anhydrous and crystalline forms; the pentahydrate crystalline form is the most common hydrate form. […] Proposed mechanisms of action involve its […], which allow it to act as a free radical scavenger and/or by covalent binding and inactivating the platinum compound.
(§1) Thiosulfate is an endogenous compound ubiquitously present in all cells and organs.

[2] = Dynamic vapor sorption (DVS) isotherm; conditions: for DVS weight loss upon desorption: hysteresis observed
[3] = system: human plasma proteins
Text: as §1

[4] = animals
Text: as §1

[5] = system: cisplatin-induced ototoxicity
Text: Reference is made to International Patent Application Publication No. WO 2019/108592, which is a continuation of U.S. patent application Ser. No. 15/826,243, filed on Nov. 29, 2017, both of which are incorporated by reference herein in their entirety.

[6] = system: small cell lung cancer cell cultures; conditions: cited from earlier work
[7] = cited from earlier work
[8] = for Cisplatin Concentration: 24° C.
Description: In one aspect, a mixed mode C-18 chromatography column is used in the assay, which has both hydrophobic interaction and ion exchange capabilities. In another aspect, the HPLC run time for the assay is about 2 min, about 5 min, about 7.5 min, about 10 min or about 15 min. In one aspect, the HPLC run time is about 5 min or about 10 min.
In another aspect, the concentration is analyzed using HPLC with a mixed mode C-18 chromatography column at a column temperature of 35° C., flow rate of 400 μL/min, and UV detection at 220 nm. In one aspect, the HPLC method comprises a step gradient of 100% Buffer A (0.5 mM ammonium formate in 9:1 water:acetonitrile, pH 4) for 3 min; then 90% Buffer A and 10% Buffer B (200 mM ammonium formate in 7:3 water:acetonitrile, pH 4) for 3.5 min; then 100% Buffer A for 4.5 min.
The method uses a Waters Acquity H-Class HPLC system with an Imtakt Scherzo SW-C18 mixed mode column. The HPLC method conditions are outlined in Table 7. […] This range covers greater than two orders of magnitude at dose-relevant concentrations.
Each sample was transferred to an HPLC vial and placed in an autosampler chamber held at 24° C. Samples were injected onto the HPLC system approximately every 30 minutes to obtain 4 time-points for each sample. A gradient was run and the retention time and peak area were obtained.

[9] = preliminary clinical studies, dose equivalent to 5.1 g/m^2 sodium thiosulfate for injection
[10] = thiosulfate:cisplatin 5:1 (n = 2)
[11] = thiosulfate:cisplatin 6:1 (n = 2)
[12] = thiosulfate:cisplatin 10:1 (n = 2)

O=S(O)(O)=S [thiosulfate]
Endogenous serum thiosulfate levels ([1]; adult volunteers): 5.5 ± 1.8 µM

O.O.O.O.O.O=S([O-])([O-])=S.[Na+].[Na+] [sodium thiosulfate pentahydrate]
DVS weight gain upon sorption [2]: 81% | DVS weight loss upon drying [2]: 27% | DVS weight loss upon desorption [2]: 51%

O=S([O-])([O-])=S.[Na+].[Na+] [anhydrous sodium thiosulfate, Sodium thiosulfate anhydrous]
DVS weight change upon equilibration to 0% relative humidity [2]: minimal weight change | DVS weight loss upon desorption [2]: 51%

O=S([O-])([O-])=S.[Na+].[Na+] [STS, sodium thiosulfate]
Binding to human plasma proteins [3]: does not bind | Distribution to the cochlea [4]: distribute to the cochlea | Plasma accumulation ([1]; administered on 2 consecutive days): no plasma accumulation | Volume of distribution ([1]; adults): 0.23 L/kg | Maximum STS plasma levels ([1]; children and adults, 15-minute infusion, dose equivalent to 12.8 g/m^2 sodium thiosulfate for injection): approximately 13.3 mM | Distribution across the blood brain barrier or placenta ([1]; human, in vivo): absent or limited | Absorption after oral administration ([1]; oral): poorly absorbed | Maximum plasma levels [1, 9]: 3.9 mM | Prevention of ototoxicity ([5]; doses equivalent to 6.4 to 12.8 g/m^2 sodium thiosulfate for injection): prevented ototoxicity | Ototoxicity in pediatric patients treated with platinum based chemotherapeutics ([5]; pediatric patients): reduces ototoxicity | Hearing protection [5, 9]: did not show hearing protection | Survival ([5]; treatment 6 hours after completion of each CIS infusion): did not affect survival | Efficacy of cisplatin based chemotherapeutics when STS was administered ([5]; two phase III clinical trials, pediatric patients): not affected | Cytotoxicity of etoposide after immediate or delayed addition of STS ([6]; incubation for 72 hours): no reduction of cytotoxicity | Anti-tumor activity of doxorubicin, carmustine (BCNU), paclitaxel, or methotrexate with STS ([6]; similar studies): no reduction of anti-tumor activity | Serum sodium levels (doses equivalent to 12.8 g/m^2 sodium thiosulfate for injection): small, transient increase | Renal or other toxicities (pediatric patients treated with a platinum based chemotherapeutic): not exacerbate renal or other toxicities | Excreted in the urine unmodified ([7]; following IV administration): Up to 95% | Biological half-life ([7]; human, in vivo): 0.65 hours | Biological half-life, range dependent on dose ([7]; human, in vivo): 16.5-182 minutes | Half-life of cisplatin (time to reach 333/2 μM) [8, 10]: 3.3 h | Slope, linear regression of cisplatin conc. vs. time [8, 10]: −0.80 Cisplatin Area/min | Cisplatin Concentration ([8]; thiosulfate:cisplatin 5:1, 4 min): 323.7 µM | Cisplatin Concentration ([8]; thiosulfate:cisplatin 5:1, 37 min): 294.2 µM and 294.0 µM | Cisplatin Concentration ([8]; thiosulfate:cisplatin 5:1, 70 min): 266.8 µM and 268.0 µM | Cisplatin Concentration ([8]; thiosulfate:cisplatin 5:1, 103 min): 243.7 µM and 245.3 µM | Half-life of cisplatin (time to reach 333/2 μM) [8, 11]: 3.07 h | Slope, linear regression of cisplatin conc. vs. time [8, 11]: −0.87 Cisplatin Area/min | Cisplatin Concentration ([8]; thiosulfate:cisplatin 6:1, 5 min): 325.4 µM and 324.5 µM | Cisplatin Concentration ([8]; thiosulfate:cisplatin 6:1, 38 min): 286.4 µM and 293.2 µM | Cisplatin Concentration ([8]; thiosulfate:cisplatin 6:1, 71 min): 259.8 µM and 266.2 µM | Cisplatin Concentration ([8]; thiosulfate:cisplatin 6:1, 104 min): 235.6 µM and 240.5 µM | Half-life of cisplatin (time to reach 333/2 μM) [8, 12]: 2.27 h | Slope, linear regression of cisplatin conc. vs. time [8, 12]: −1.13 Cisplatin Area/min | Cisplatin Concentration ([8]; thiosulfate:cisplatin 10:1, 4 min): 319.5 µM | Cisplatin Concentration ([8]; thiosulfate:cisplatin 10:1, 5 min): 320.3 µM | Cisplatin Concentration ([8]; thiosulfate:cisplatin 10:1, 37 min): 269.4 µM | Cisplatin Concentration ([8]; thiosulfate:cisplatin 10:1, 38 min): 278.5 µM | Cisplatin Concentration ([8]; thiosulfate:cisplatin 10:1, 70 min): 235.2 µM | Cisplatin Concentration ([8]; thiosulfate:cisplatin 10:1, 71 min): 239.6 µM | Cisplatin Concentration ([8]; thiosulfate:cisplatin 10:1, 103 min): 205.6 µM | Cisplatin Concentration ([8]; thiosulfate:cisplatin 10:1, 104 min): 209.3 µM
